Results on eight compounds are retold here after patent US10646501B2, “Reducing the reproductive capacity of mammals” (priority 2012, dated 2020).

SMILES strings stand for the structures.

The subject of data set [1] is rat pup ovaries (ovarian follicles). Briefly: in vitro ovarian culture bioassay of follicle depletion (ovaries cultured 8 days, histology, follicle counts). The class given is cell-based. The conditions noted are these: for follicle depletion, diepoxide combined with Triptolide / Biological activity (ranking, follicle depletion): diepoxide 30 μM + Trip 5 nM; for Biological activity (ranking, follicle depletion): rank 1 to 6. Details: key to Biological activity (ranking, follicle depletion): 1—least chemical reactivity/biological activity; 6—most chemical reactivity/biological activity. An excerpt:
The biological activity of the epoxides can be evaluated in an in vitro bioassay using rat pup ovaries based on method reported in “Characterization of a rat in vitro ovarian culture system to study the ovarian toxicant 4-vinylcyclohexene diepoxide.” Devine et. al. 2002, Taxicol. Appl. Pharmacol. 184, 107-115, incorporated herein by reference. Biological activity can be determined by follicle counts in ovarian sections after week long culture with micro molar concentrations of the epoxide. In general, biologically active epoxides will also be chemically active as well but not vice versa.
FIGS. 3A, 3B and 3C illustrate an in vitro culture system for evaluating the efficacy of follicle-depletion compositions (developed by Patrick J. Devine). As set forth in the various examples herein, ovaries are cultured with VCD with or without triptolide in serum-free media for 8 days, no gonadotropins present, no media changes and active ingredients added just once at start of culture. Ovaries are collected and processed for histology to perform follicle counting.
In vitro bioassay of follicle depletion, ovaries cultured for 8 days with different chemicals
Control—no chemicals, Triptolide—5 nM (Trip), Diepoxides. RDE, CHDE, Quetol, ERL 4221, BDE, GDE, each at 30 μM+Trip 5 nM
Ovaries were prepared for histological analysis for determination of follicle depletion

The test system of the next data set is male rat fertility. To be noted: oral exposure; cited from earlier work.
A further data set relates to ovarian failure. Description: VCD alone as the only active ingredient, premature ovarian failure. It counts as in vivo. The conditions noted are these: low concentrations or short exposure durations <15 days. An excerpt: Premature ovarian failure is when no more ovulations occur in spite of eggs/follicles being present in an ovary. For compositions and methods to function as a means of population control, the ovarian failure desirably occurs rapidly, for example within 10 days of treatment for rodents.

The test system of data set [2] is Sprague Dawley rats (Rattus norvegicus). The conditions noted are these: via gavage; cited from earlier work.
A short description of data set [3]: epoxide assay of chemical reactivity (alkylating assay using 4-(p-nitrobenzyl) pyridine). It counts as physicochemical. Further details: key to Chemical reactivity (ranking): 1—least chemical reactivity/biological activity; 6—most chemical reactivity/biological activity. The conditions noted are these: for Chemical reactivity (ranking): reactivity in epoxide assay, rank 1 to 6. An excerpt:
The chemical reactivity of the epoxides can determined in an alkylating assay using 4-(p-nitrobenzyl) pyridine (NBP) based on the method reported in “Detection of epoxides with 4-(p-nitrobenzyl) pyridine.” Agarwal et. al. 1979, Bull. Environm. Contam. Toxicol. 23, 825-829, incorporated herein by reference.
Compared chemical (reactivity in epoxide assay) to biological activity (follicle depletion)

Where [4] appears, read: 30 μm VCD alone, cultured ovary, 8 days.

In the case of `CC(C)[C@]12O[C@H]1[C@@H]1O[C@]13[C@]1(O[C@H]1C[C@H]1C4=C(CC[C@@]13C)C(=O)OC4)[C@@H]2O` [Triptolide, triptolide], in data set [1] (Triptolide 5 nM alone, ovaries cultured 8 days), the “follicle depletion, triptolide alone” value is reported as “did not cause significant follicle depletion”. For the same compound, the “effect on male rat fertility” value in the data set on male rat fertility is on record as “compromise male rat fertility to ultimate sterility”.

Regarding `C1CC2OC2CC1C1CO1` (centres unmarked) [VCD, 4-vinylcyclohexene diepoxide], in data set [1] (setting [4]), the “effect on the other stages of follicles” value is given as “not significantly affected” and the “reduction in primordial follicles” value came out at 38%. Besides, the premature ovarian failure entry with ovarian failure is “did not cause premature ovarian failure”. Besides, the primordial follicle depletion result in data set [2] is recorded as “efficacious to cause non-regenerating primordial follicle depletion”.

Take `C(CCOCC1CO1)COCC1CO1` (centres unmarked) [BDE, 1,4-butanediol diglycidyl ether]: in data set [1] (ovaries cultured 8 days), the “follicle depletion, diepoxide combined with Triptolide” value (“follicle depletion … with Triptolide” below) was “caused significant follicle depletion” and the “Biological activity (ranking, follicle depletion)” value is 3. Besides, in data set [3], the “Chemical reactivity (ranking)” value is 6.

For `O=C(OCC1CCC2OC2C1)C1CCC2OC2C1` (centres unmarked) [ERL 4221, 3,4-epoxy-cyclohexyl-methyl-3,4-epoxycyclohexyl carboxylate], in data set [1] (ovaries cultured 8 days), the “follicle depletion … with Triptolide” value was “caused significant follicle depletion” and the “Biological activity (ranking, follicle depletion)” value amounted to 6. Also, in data set [1] (when combined with Trip, among the six diepoxides), the “biological activity in words” value is given as “most biologically active”. Also, the “chemical reactivity in words” value in data set [3] (among the six diepoxides) is given as “least chemically reactive”. Also, the “Chemical reactivity (ranking)” value in data set [3] is listed as 1.

Take `OCC(COCC1CO1)OCC1CO1` (centres unmarked) [GDE, glycerol diglycidyl ether]: in data set [1] (ovaries cultured 8 days), the “follicle depletion … with Triptolide” value is recorded as “caused significant follicle depletion” and the “Biological activity (ranking, follicle depletion)” value came to 2. In addition, the “Chemical reactivity (ranking)” value in data set [3] came out at 5.

`C(COCC1CO1)OCC1CO1` (centres unmarked) [Quetol, ethylene glycol diglycidyl ether]: in data set [1] (ovaries cultured 8 days), the “follicle depletion … with Triptolide” value was “caused significant follicle depletion” and the “Biological activity (ranking, follicle depletion)” value worked out at 5. The “Chemical reactivity (ranking)” value in data set [3] is 2.

Regarding `C1CC(COCC2CO2)CCC1COCC1CO1` (centres unmarked) [CHDE, 1,4-cyclohexanedimethanol diglycidyl ether], in data set [1] (ovaries cultured 8 days), the “follicle depletion … with Triptolide” value was “caused significant follicle depletion” and the “Biological activity (ranking, follicle depletion)” value came out at 4. Besides, the “Chemical reactivity (ranking)” value in data set [3] is reported as 3.

As for `Oc1cccc(OCC2CO2)c1` (centres unmarked) [RDE, resorcinol glycidyl ether], in data set [1] (ovaries cultured 8 days), the “follicle depletion … with Triptolide” value is given as “did not cause significant follicle depletion” and the “Biological activity (ranking, follicle depletion)” value is 1. Also, the “Chemical reactivity (ranking)” value in data set [3] is recorded as 4.
